Laboratory results taken from patent US20080089860A1, “Therapeutic compositions and methods useful in treating cancer” (priority 2006, published 2008).

Tests used:
WM9 cells = assay: WM9 melanoma cell growth, MTT assay; assay type: cell-based, human; details: for effect on IFN-induced growth inhibition of WM9 cells: pentamidine 0.625-1.25 μg/ml, ketoconazole 40 μg/ml, sodium stibogluconate 12.5-50 μg/ml
Experimental: For cell proliferation assays, cells were grown in 10% FCS culture medium containing various amounts of IFNs and/or sodium stibogluconate in 96 well plates and cultured at 37° C. for 3 or 6 days as indicated. The numbers of viable cells in proliferation assays were determined by MTT assays as described in Phatak et al., J. Immunol. 167, 3391 (2001).
Dose response curves were generated for each drug alone, and also the combinations. Median effect plots were generated for IFNs alone, sodium stibogluconate alone, and the combination. The combination index (CI) was determined and plotted vs. fraction affected (FA). Data were analyzed in both modes, mutually exclusive and mutually nonexclusive. The interaction between two mutually nonexclusive drugs is described by the Equation CI=D1/Dx1+D2/Dx2+D1D2/Dx1Dx2, where Dx1 and Dx2 are the doses of drug 1 and drug 2 that are required to inhibit growth x %. […] When CI<1, drugs are synergistic, when CI=1, drugs are additive, and when CI>1, drugs are antagonistic.
Renca (Murphy, G. P., and W. J. Hrushesky. 1973. A murine renal cell carcinoma. J Natl Cancer Inst 50:1013), Jurkat (Gillis, S., and J. Watson. 1980. Biochemical and biological characterization of lymphocyte regulatory molecules. V. Identification of an interleukin 2-producing human leukemia T cell line. J Exp Med 152:1709) and WM9 (Forsberg, K., 1. Valyi-Nagy, C. H. Heldin, M. Herlyn, and B. Westermark. 1993. Platelet-derived growth factor (PDGF) in oncogenesis: development of a vascular connective tissue stroma in xenotransplanted human melanoma producing PDGF-BB. Proc Natl Acad Sci USA 90:393) cell lines were obtained from a colleague at the Cleveland Clinic Foundation (CCF) and cultured in RPMI 1640 medium supplemented with 10% fetal calf serum (FCS). […] SSG has been described previously (Yi, T., M. K. Pathak, D. J. Lindner, M. E. Ketterer, C. Farver, and E. C. Borden. 2002. Anticancer activity of sodium stibogluconate in synergy with IFNs. J Immunol 169:5978).

GSTm8 = assay: In vitro PTPase assay, GSTm8; assay type: biochemical; details: 3-4 μg/ml or 10-100 μg/ml
Text: In vitro PTPase assays were used to determine the effects of levamisole (Sigma), pentamidine (American Pharmaceutical Partners, Inc.), and ketoconazole (Sigma) on recombinant PTPases, following established procedures (Pathak et al., J. Imumol. 167, 3391 (2001); Pathak et al., Leukemia 16, 2285 (2002), Yi et al., J. Immunol. 169, 5978 (2002)) using a synthetic phosphotyrosine peptide or DiFMUP as the substrate as detailed above in section I.A.2.

SHP-1 = biological target: T1, SHP-1 (Mus musculus, UniProt P29351); assay: In vitro PTPase assay, GST/SHP-1; assay type: biochemical; details: for inhibitory activity against SHP-1: 3-4 μg/ml or 10-100 μg/ml
T1 construct: made in house
T1 sequence (P29351 whole entry): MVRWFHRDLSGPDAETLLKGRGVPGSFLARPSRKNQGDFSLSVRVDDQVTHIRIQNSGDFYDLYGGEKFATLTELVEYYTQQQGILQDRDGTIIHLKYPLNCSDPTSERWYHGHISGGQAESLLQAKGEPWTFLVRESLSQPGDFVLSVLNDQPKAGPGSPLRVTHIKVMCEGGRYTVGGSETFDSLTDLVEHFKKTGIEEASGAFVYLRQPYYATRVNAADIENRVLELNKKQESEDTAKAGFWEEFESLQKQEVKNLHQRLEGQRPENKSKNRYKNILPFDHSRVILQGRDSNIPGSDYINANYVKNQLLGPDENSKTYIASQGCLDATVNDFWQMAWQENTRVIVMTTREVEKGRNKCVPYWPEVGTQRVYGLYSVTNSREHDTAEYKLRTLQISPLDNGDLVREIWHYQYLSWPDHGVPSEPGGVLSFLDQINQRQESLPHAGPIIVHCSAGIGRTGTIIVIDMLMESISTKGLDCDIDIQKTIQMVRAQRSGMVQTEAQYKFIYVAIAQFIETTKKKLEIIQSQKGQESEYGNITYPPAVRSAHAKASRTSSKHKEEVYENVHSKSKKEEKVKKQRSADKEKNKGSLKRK
Experimental: In vitro PTPase activities were measured using the commercial protein tyrosine phosphatase assay kit (Upstate Biotechnology, Inc. (“UBI”)) following established procedure known to one of skill in the art. […] Briefly, 0.01 µg of GST/PTPase fusion proteins was incubated in 50 µl of Tris buffer (10 mM Tris, pH 7.4) containing different concentrations of inhibitors or chemicals (0-1,000 µg/ml) at 22° […] 100 µl of Malachite Green solution was added and incubated for 5 minutes, and the absorbance at 660 nm was measured after 5 minutes.
To assess the reversibility of inhibition of SHP-1 by PTPase inhibitors, GST/SHP-1 fusion protein bound on glutathione beads were pre-incubated in cold Tris buffer or Tris buffer containing the PTPase inhibitors at 4° C. for 30 minutes. The beads were then either subjected to in vitro PTPase assays or washed 3 times in Tris buffer then subjected to in vitro PTPase assays.
Briefly, individual PTPases (0.1 µg/reaction) in 50 µL of PTPase buffer (50 mM Tris, pH 7.4) were incubated at 22° C. for 10 minutes or as indicated in the absence or presence of inhibitory compounds. Substrates (0.2 mM phosphotyrosine peptide) were then added and allowed to react at 22° C. for 18 hrs. PTPase activity of individual reactions was measured by adding 100 µL of malachite green solution (UBI) and then quantifying the amounts of free phosphate cleaved by the PTPase from the peptide substrate by spectrometry (OD660 nm). […] Relative PTPase activities were calculated based on the formula: (PTPase activity in the presence of an inhibitory compound/PTPase activity in the absence of the compound)× 100%. To assess the reversibility of PTPase inhibition, GST fusion proteins of the PTPases bound on glutathione beads (Pharmacia) were pre-incubated with cold Tris buffer (50 mM Tris, pH 7.0) or Tris buffer containing the inhibitor at 4° C. for 30 minutes. The beads were then washed three times in cold Tris buffer or not washed prior to subjecting to in vitro PTPase assays.

Q: With `N=C(N)c1ccc(OCCCCCOc2ccc(C(=N)N)cc2)cc1` [pentamidine] as the compound, how does the “effect on IFN-induced growth inhibition of WM9 cells” value (WM9 cells) read?
A: augmented IFN-alpha-induced growth inhibition

Q: And the “growth inhibition of WM9 cells” value (WM9 cells; pentamidine 2.5-5 μg/ml, single agent, 6 days)?
A: 86-97%

Q: What about the “inhibitory activity against GSTm8” value (GSTm8) of the same compound?
A: no obvious inhibitory activity

Q: And the “inhibitory activity against SHP-1” value (SHP-1)?
A: no obvious inhibitory activity

Q: With `CC(=O)N1CCN(c2ccc(OCC3COC(Cn4ccnc4)(c4ccc(Cl)cc4Cl)O3)cc2)CC1` (stereo not drawn) [ketoconazole] as the compound, how does the “activity against WM9 cells” value (WM9 cells; 0.625-20 μg/ml, single agent or with IFN-alpha) read?
A: no apparent activity

Q: What about the inhibition at 40 µg/mL (WM9 cells; Homo sapiens, WM9, 40 μg/ml, single agent) of the same compound?
A: 67%

Q: What about the “effect on IFN-induced growth inhibition of WM9 cells” value (WM9 cells) of the same compound?
A: minor augmenting effect

Q: And the “inhibitory activity against GSTm8” value (GSTm8)?
A: no obvious inhibitory activity

Q: What about the “inhibitory activity against SHP-1” value (SHP-1) of the same compound?
A: no obvious inhibitory activity

Q: How did the “growth of WM9 melanoma cells” value (WM9 cells; SSG 6.25-200 μg/ml, 6 days) turn out when `O.O.O.O.O.O.O.O.O.O=C([O-])[C@@H]1[O][Sb]2([O-])([O][Sb]34([OH])[O][C@H]([C@H](O)CO)[C@H]([O]3)[C@H](C(=O)[O-])[O]4)[O][C@H]([C@H](O)CO)[C@@H]1[O]2.[Na+].[Na+].[Na+]` [sodium stibogluconate] was run?
A: inhibited by SSG in a dose-dependent manner

Q: What about the “effect on IFN-induced growth inhibition of WM9 cells” value (WM9 cells) of the same compound?
A: greatly enhanced

Q: What about the “WM9 cells in day 6 culture” value (WM9 cells; single agent, 50 μg/ml and 100 μg/ml) of the same compound?
A: killed all cells

Q: What about the “activity against recombinant SHP-1” value (SHP-1; HPLC fractions, parental mixture at Sb 10 μg/ml) of the same compound?
A: inactivated SHP-1

Q: And the “dephosphorylation of pNPP by these PTPases” value (SHP-1; pNPP substrate, SHP-1, SHP-2 and PTP1B)?
A: similarly inhibited

Q: What about the “inhibition of GST/SHP-1 after washing (reversibility)” value (SHP-1; pre-incubated with inhibitor, beads washed) of the same compound?
A: not affected by washing
